# Measurements taken from ChEMBL document CHEMBL3046750, “Synthesis, characterization and antimicrobial activity of novel ethyl 1-(N-substituted)-5-phenyl-1H-pyrazole-4-carboxylate derivatives” (2012).
# Activity calls are given as the source filed them. The calls are words filed in the database; no cut-off is given here.
# Legend:
# Pseudomonas aeruginosa [1] = test: Antibacterial activity against Pseudomonas aeruginosa after 16 hr by serial dilution method; assay type: functional
# Escherichia coli [2] = test: Antibacterial activity against Escherichia coli after 16 hr by serial dilution method; assay type: functional
# Bacillus subtilis [3] = test: Antibacterial activity against Bacillus subtilis after 16 hr by serial dilution method; assay type: functional
# Staphylococcus aureus [4] = test: Antibacterial activity against Staphylococcus aureus after 16 hr by serial dilution method; assay type: functional
# Pseudomonas aeruginosa [5] = test: Antibacterial activity against Pseudomonas aeruginosa at 1.6125 ug/ml after 16 hr by serial dilution method; assay type: functional, organism-based
# Escherichia coli [6] = test: Antibacterial activity against Escherichia coli at 1.6125 ug/ml after 16 hr by serial dilution method; assay type: functional, organism-based
# Bacillus subtilis [7] = test: Antibacterial activity against Bacillus subtilis at 1.6125 ug/ml after 16 hr by serial dilution method; assay type: functional, organism-based
# Staphylococcus aureus [8] = test: Antibacterial activity against Staphylococcus aureus at 1.6125 ug/ml after 16 hr by serial dilution method; assay type: functional, organism-based
MIC (Pseudomonas aeruginosa [1]),MIC (Escherichia coli [2]),MIC (Bacillus subtilis [3]),MIC (Staphylococcus aureus [4]),Compound,Activity (Pseudomonas aeruginosa [5]),Activity (Escherichia coli [6]),Activity (Bacillus subtilis [7]),Activity (Staphylococcus aureus [8])
1.61 µg/mL,1.61 µg/mL,1.61 µg/mL,3.12 µg/mL,CCOC(=O)c1cnn(-c2ccc(C(F)(F)F)cc2)c1-c1ccccc1,–,–,–,–
3.25 µg/mL,1.61 µg/mL,1.61 µg/mL,1.61 µg/mL,CCOC(=O)c1cnn(-c2ccc(Cl)cc2Cl)c1-c1ccccc1,–,–,–,–
1.61 µg/mL,1.61 µg/mL,3.12 µg/mL,3.12 µg/mL,CCOC(=O)c1cnn(C2CCNCC2)c1-c1ccccc1,–,–,–,–
25 µg/mL,–,–,50 µg/mL,CCOC(=O)c1cnn(-c2ccc(C(=O)O)cc2)c1-c1ccccc1,–,inactive,inactive,–
1.61 µg/mL,1.61 µg/mL,3.12 µg/mL,6.25 µg/mL,CCOC(=O)c1cnn(-c2ccc(F)cc2)c1-c1ccccc1,–,–,–,–
12.5 µg/mL,–,12.5 µg/mL,–,CCOC(=O)c1cnn(-c2ccc(C(C)(C)C)cc2)c1-c1ccccc1,–,inactive,–,inactive
1.61 µg/mL,1.61 µg/mL,1.61 µg/mL,3.12 µg/mL,CCOC(=O)c1cnn(-c2ccccc2Br)c1-c1ccccc1,–,–,–,–
3.12 µg/mL,6.25 µg/mL,3.12 µg/mL,3.12 µg/mL,CCOC(=O)c1cnn(-c2ccc3ccccc3n2)c1-c1ccccc1,–,–,–,–

# The remaining lines, values behind:
Compound,MIC (Pseudomonas aeruginosa [1]),MIC (Escherichia coli [2]),MIC (Bacillus subtilis [3]),MIC (Staphylococcus aureus [4]),Activity (Pseudomonas aeruginosa [5]),Activity (Escherichia coli [6]),Activity (Bacillus subtilis [7]),Activity (Staphylococcus aureus [8])
CO/N=C(\C(=O)N[C@@H]1C(=O)N2C(C(=O)O)=C(CSc3nc(=O)c(O)nn3C)CS[C@H]12)c1csc(N)n1 [CEFTRIAXONE],1.61 µg/mL,1.61 µg/mL,1.61 µg/mL,3.12 µg/mL,–,–,–,–
CCOC(=O)c1cnn(C2CCCCC2)c1-c1ccccc1,6.25 µg/mL,12.5 µg/mL,6.25 µg/mL,6.25 µg/mL,–,–,–,–
CCOC(=O)c1cnn(C(C)(C)C)c1-c1ccccc1,–,–,–,–,inactive,inactive,inactive,inactive
CCOC(=O)c1cnn(-c2ccc(C)cc2)c1-c1ccccc1,–,–,–,–,inactive,inactive,inactive,inactive
CCOC(=O)c1cnn(C)c1-c1ccccc1,–,–,–,–,inactive,inactive,inactive,inactive
